Test results taken from patent US20240327429A1, “[1,3]Thiazolo[4,5-d]-pyrimidon-7-ones as inhibitors of NOX4” (Boehringer Ingelheim International GmbH, priority 2023, published 2024).

How the values were obtained:
human NOX1 (hNOX1) = biological target: T1, human NOX1 (hNOX1) (Homo sapiens, UniProt Q9Y5S8); assay: NOX1 inhibition assay (L-012), HEK293 cells stably overexpressing human NOX1; format: cell-based; settings: HEK293-hNOX1, PMA stimulated
T1 construct: pLV-CMV-hNOX1-puro (NM_007052.5); host or cells: HEK293 (CLS GmbH), lentiviral transduction
T1 sequence (Q9Y5S8 1-564): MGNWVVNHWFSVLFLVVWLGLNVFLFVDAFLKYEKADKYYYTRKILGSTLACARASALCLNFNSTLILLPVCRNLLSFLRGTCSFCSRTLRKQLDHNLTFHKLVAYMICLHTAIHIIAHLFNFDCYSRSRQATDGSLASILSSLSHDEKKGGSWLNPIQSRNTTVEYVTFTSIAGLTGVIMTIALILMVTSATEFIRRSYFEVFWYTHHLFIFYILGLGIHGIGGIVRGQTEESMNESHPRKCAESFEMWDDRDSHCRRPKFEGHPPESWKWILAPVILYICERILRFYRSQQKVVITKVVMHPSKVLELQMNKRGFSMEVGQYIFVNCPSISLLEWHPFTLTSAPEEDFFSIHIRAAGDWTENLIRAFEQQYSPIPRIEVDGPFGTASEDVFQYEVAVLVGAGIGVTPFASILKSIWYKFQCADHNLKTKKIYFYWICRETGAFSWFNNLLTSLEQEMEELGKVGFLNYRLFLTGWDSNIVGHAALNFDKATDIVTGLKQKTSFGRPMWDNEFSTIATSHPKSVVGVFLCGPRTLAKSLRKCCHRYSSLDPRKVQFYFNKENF
T1 sequence (P13498 2-195 partner limits assumed): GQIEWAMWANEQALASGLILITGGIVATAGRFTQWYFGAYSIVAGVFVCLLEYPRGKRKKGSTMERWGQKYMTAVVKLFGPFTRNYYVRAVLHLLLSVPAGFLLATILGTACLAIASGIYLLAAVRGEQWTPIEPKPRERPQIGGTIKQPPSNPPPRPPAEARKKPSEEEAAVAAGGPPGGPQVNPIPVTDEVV
From the text: Plasmids are Purchased from Vectorbuilder. • for HEK-hNOX1 all necessary subunits are cloned accordingly: • pLV-CMV-hNOX1-puro (NM_007052.5) • pLV-CMV-hNOXO1-blas (NM_172168.3) • pLV-CMV-hp22phox-hygro (NM_000101.4) • pLV-CMV-hNOXA1-neo (NM_006647.2) • for HEK-hNOX3 • pLV-CMV-hNOX3-puro (NM_015718.3)
3rd generation lentiviral particles are produced in HEK293 suspension cells by transient transfection of three helper and expression plasmids. Crucial lentivirus supernatants are harvested, clarified by filtration and concentrated by precipitation. Lentivirus titers are determined in transducing units in (TU/mL) by transduction of HT1080 cells and colony forming assay. Parental HEK293 cells, purchased from CLS GmbH, are transduced with replication-incompetent 3rd generation lentiviral particles (MOI 2) and expanded for at least 2 weeks before cryopreservation of tested lots. During cultivation, medium is changed three times per week and cells are sub-cultured at least once per week. Selection antibiotics are added according to the plasmids (1 μg/ml puromycin, 1.5 μg/ml blasticidin, 200 μg/ml G418 and 100 μg/ml hygromycin).
Evaluation of the NOX4 inhibitors on NOX1 activity is assessed in HEK293 cells stably overexpressing human NOX1 (hNOX1).
Lastly, 8-amino-5-chloro-2,3-dihydro-7-phenyl-pyrido[3,4-d]pyridazine-1,4-dione sodium salt (L-012, CAS 143556-24-5) is added at 400 μM to all wells, and cells are incubated in an incubator for an additional 3 h. Afterwards luminescence is measured with a SpectraMax Paradigm Microplate Reader.

NOX2 = biological target: T2, NOX2 (Homo sapiens, UniProt P04839); assay: NOX2 inhibition assay (L-012), human blood-derived granulocytes; format: cell-based; settings: fMLP/PMA stimulated
T2 construct: endogenous in cells; host or cells: freshly isolated human blood-derived granulocytes
T2 sequence (P04839 2-570 limits assumed): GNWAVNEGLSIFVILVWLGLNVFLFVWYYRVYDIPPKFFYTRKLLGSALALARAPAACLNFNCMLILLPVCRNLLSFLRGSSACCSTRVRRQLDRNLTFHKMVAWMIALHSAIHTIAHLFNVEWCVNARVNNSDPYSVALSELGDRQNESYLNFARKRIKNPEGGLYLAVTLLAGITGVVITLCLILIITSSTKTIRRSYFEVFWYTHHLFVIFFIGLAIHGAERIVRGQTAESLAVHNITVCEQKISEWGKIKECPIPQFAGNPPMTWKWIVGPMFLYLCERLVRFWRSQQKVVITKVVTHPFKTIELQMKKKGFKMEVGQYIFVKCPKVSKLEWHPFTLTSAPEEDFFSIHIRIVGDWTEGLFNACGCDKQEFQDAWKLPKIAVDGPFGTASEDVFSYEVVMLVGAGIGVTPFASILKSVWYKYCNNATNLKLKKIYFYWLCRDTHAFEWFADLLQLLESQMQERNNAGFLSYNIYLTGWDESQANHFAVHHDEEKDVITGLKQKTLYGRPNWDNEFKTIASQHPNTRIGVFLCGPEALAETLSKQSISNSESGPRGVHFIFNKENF
T2 sequence (P13498 2-195 partner limits assumed): T1 sequence (P13498 2-195 partner limits assumed)
Protocol: Evaluation of the NOX4 inhibitors on NOX2 activity is assessed in human blood-derived granulocytes.
Afterwards, freshly isolated granulocytes are added to the wells containing the compounds in assay buffer and incubated for 1 h at 37° C. Next, a solution of Nformylmethionine-leucyl-phenylalanine (fMLP; 730 nM), phorbol myristate acetate (PMA, 100 nM) (stimuli of ROS production) and L-012 (200 μM, ROS indicator) is added to the wells and the cells are incubated for additional 30 mins at 37° C. Afterwards luminescence is measured in a SpectraMax M5 microplate reader.

| Compound | IC50 (human NOX1 (hNOX1)) [µM] | IC50 (NOX2) [µM] |
| --- | --- | --- |
| Cc1cc(F)cc(C)c1CSc1nc2ncsc2c(=O)n1-c1cnc(O)c(F)c1 [Example 43] | > 100 | > 100 |
| N#Cc1cc(-n2c(SCc3c(F)cc(F)cc3F)nc3ncsc3c2=O)cnc1O [Example 47, 2-Hydroxy-5-(7-oxo-5-((2,4,6-trifluorobenzyl)thio)thiazolo[4,5-d]pyrimidin-6(7H)-yl)-nicotinonitrile] | 4.9 | > 30 |
| O=c1c2scnc2nc(SCc2c(F)cc(F)cc2F)n1-c1cnc(O)c(Cl)c1 [Example 48, 6-(5-Chloro-6-hydroxypyridin-3-yl)-5-((2,4,6-trifluorobenzyl)thio)thiazolo[4,5-d]pyri-midin-7(6H)-one] | 36.7 | > 100 |
| O=c1c2scnc2nc(SCc2c(F)cc(F)cc2F)n1-c1cnc(O)cc1F [Example 49, 6-(4-Fluoro-6-hydroxypyridin-3-yl)-5-((2,4,6-trifluorobenzyl)thio)thiazolo[4,5-d]pyrimidin-7(6H)-one] | > 100 | > 100 |
| O=c1c2scnc2nc(SCc2c(F)cc(F)cc2F)n1-c1ccc(O)nc1F [Example 50, 6-(2-Fluoro-6-hydroxypyridin-3-yl)-5-((2,4,6-trifluorobenzyl)thio)thiazolo[4,5-d]-pyrimidin-7(6H)-one] | 27.6 | > 100 |
| O=c1c2scnc2nc(SCc2c(F)cc(F)cc2F)n1-c1cc(F)c(O)nc1F [Example 51, 6-(2,5-Difluoro-6-hydroxypyridin-3-yl)-5-((2,4,6-trifluorobenzyl)thio)thiazolo[4,5-d]-pyrimidin-7(6H)-one] | 3 | > 100 |
| O=c1c2scnc2nc(SCc2c(F)cc(F)cc2F)n1-c1cnc(O)c(F)c1F [Example 52, 6-(4,5-Difluoro-6-hydroxypyridin-3-yl)-5-((2,4,6-trifluorobenzyl)thio)thiazolo[4,5-d]-pyrimidin-7(6H)-one] | 21.2 | > 100 |
| Cc1cc(F)cc(C)c1CSc1nc2ncsc2c(=O)n1-c1ccc(O)nn1 [Example 63] | 43.4 | 46 |
| O=c1c2scnc2nc(SCc2ccc(Cl)cc2)n1-c1ccc(O)nn1 [Example 64] | > 100 | > 100 |
| O=c1c2scnc2nc(SCc2ccc(C(F)(F)F)cc2F)n1-c1ccc(O)nn1 [Example 65] | > 100 | > 100 |
| O=c1c2scnc2nc(SCc2ccc(C(F)(F)F)cc2)n1-c1ccc(O)nn1 [Example 66] | > 100 | > 100 |
| O=c1c2scnc2nc(SCc2c(F)cc(F)cc2F)n1-c1ccc(O)nn1 [Example 67] | > 100 | > 30 |
| Cc1cc(F)ccc1CSc1nc2ncsc2c(=O)n1-c1ccc(O)nn1 [Example 68] | 11 | > 100 |
| O=c1c2scnc2nc(SCc2c(F)cc(F)cc2F)n1-c1cnc(O)cn1 [Example 69, 6-(5-Hydroxypyrazin-2-yl)-5-((2,4,6-trifluorobenzyl)thio)thiazolo[4,5-d]pyrimidin-7(6H)-one] | > 100 | > 100 |

Other lines, results leading:

| IC50 (human NOX1 (hNOX1)) [µM] | IC50 (NOX2) [µM] | Compound |
| --- | --- | --- |
| 32.9 | > 100 | Cc1c(F)cccc1CSc1nc2ncsc2c(=O)n1-c1cnc(O)c(F)c1 [Example 40] |
| 9.8 | 39.3 | O=c1c2scnc2nc(SCc2c(F)cc(F)cc2Cl)n1-c1cnc(O)c(F)c1 [Example 41] |
| 5.6 | > 100 | O=c1c2scnc2nc(SCc2ccc(C(F)(F)F)cc2F)n1-c1cnc(O)c(F)c1 [Example 42] |
| 43.2 | > 100 | O=c1c2scnc2nc(SCc2ccc(F)cc2Br)n1-c1cnc(O)c(F)c1 [Example 44] |
| 30.9 | > 100 | O=c1c2scnc2nc(SCc2c(F)ccc(F)c2F)n1-c1cnc(O)c(F)c1 [Example 45] |
| 48.4 | > 100 | O=c1c2scnc2nc(SCc2ccc(C(F)(F)F)cc2Cl)n1-c1cnc(O)c(F)c1 [Example 46] |
| > 100 | > 100 | O=c1c2scnc2nc(SCc2ccc(Cl)cc2F)n1-c1cnc(O)nc1 [Example 53, 5-((4-Chloro-2-fluorobenzyl)thio)-6-(2-hydroxypyrimidin-5-yl)thiazolo[4,5-d]pyrimidin-7(6H)-one] |
| 16.5 | > 100 | Cc1cc(F)cc(C)c1CSc1nc2ncsc2c(=O)n1-c1cnc(O)nc1 [Example 55] |
| 2.7 | > 100 | O=c1c2scnc2nc(SCc2ccc(Cl)cc2)n1-c1cnc(O)nc1 [Example 56] |
| 11.8 | > 100 | Cc1cc(F)ccc1CSc1nc2ncsc2c(=O)n1-c1cnc(O)nc1 [Example 58] |
| 21 | > 100 | O=c1c2scnc2nc(SCc2c(F)cc(F)cc2F)n1-c1cnc(O)nc1 [Example 59] |
| > 100 | > 100 | O=c1c2scnc2nc(SCc2ccc(C(F)(F)F)cc2)n1-c1cnc(O)nc1 [Example 60] |
| > 100 | > 100 | O=c1c2scnc2nc(SCc2ccc(Cl)cc2F)n1-c1ccc(O)nn1 [Example 61, 5-((4-Chloro-2-fluorobenzyl)thio)-6-(6-hydroxypyridazin-3-yl)thiazolo[4,5-d]pyrimidin-7(6H)-one] |
| > 100 | > 100 | Cc1cc(Cl)ccc1CSc1nc2ncsc2c(=O)n1-c1ccc(O)nn1 [Example 62] |
